Values joined by “and” are separate entries in the source; they are usually repeats but may differ in a detail not shown here. Identical values can stand only once.
How the values were obtained:
[1] = Relaxivity measurements in PBS; assay type: physicochemical; conditions: 1.4 T, 37° C.
[2] = molecular target: bovine serum albumin (BSA) (Bos taurus, UniProt P02769); assay: Relaxivity measurements with BSA; assay type: binding; conditions: 1.4 T, 37° C., BSA 10 mg/mL
[3] = molecular target: T1, BSA-ALD (oxidized bovine serum albumin containing allysine aldehyde groups) (Bos taurus, UniProt P02769); assay: Relaxivity measurements with BSA-Ald; assay type: binding; conditions: for r1, +BSA-Ald / r1, Bound to BSA-Ald: 1.4 T; for r1, +BSA-Ald / r1, Bound to BSA-Ald / increase of r1 in BSA^Ald compared to PBS value: 37° C.; for r1, +BSA-Ald: BSA-Ald 10 mg/mL; for r1, Bound to BSA-Ald: protein-bound species after NaBH3CN and ultrafiltration; for increase of r1 in BSA^Ald compared to PBS value: 1.41 T
T1 construct: made in house; host or cells: no expression host: BSA oxidised chemically with sodium ascorbate, ferric chloride and H2O2, then desalted on PD-10
T1 sequence (P02769 25-607): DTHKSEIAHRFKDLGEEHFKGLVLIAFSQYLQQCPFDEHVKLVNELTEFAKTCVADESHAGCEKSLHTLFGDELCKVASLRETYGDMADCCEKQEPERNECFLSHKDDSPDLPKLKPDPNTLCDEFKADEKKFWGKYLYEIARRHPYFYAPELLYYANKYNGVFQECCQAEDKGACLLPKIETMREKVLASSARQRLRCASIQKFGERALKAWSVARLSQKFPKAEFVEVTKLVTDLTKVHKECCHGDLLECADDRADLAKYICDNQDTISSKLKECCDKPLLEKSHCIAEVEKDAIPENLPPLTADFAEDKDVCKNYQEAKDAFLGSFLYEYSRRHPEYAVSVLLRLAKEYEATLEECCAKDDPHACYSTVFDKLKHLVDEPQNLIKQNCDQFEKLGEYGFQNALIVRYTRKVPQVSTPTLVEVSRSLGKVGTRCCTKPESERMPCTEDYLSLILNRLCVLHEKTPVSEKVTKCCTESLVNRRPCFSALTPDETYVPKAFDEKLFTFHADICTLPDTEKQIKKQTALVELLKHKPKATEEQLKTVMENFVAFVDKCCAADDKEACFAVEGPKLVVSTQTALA

Sequence of bovine serum albumin (BSA) (P02769 25-607): as above

SMILES	r1, PBS [1]	r1, +BSA [2]	fold higher relaxivity than Gd-CHyd [3]	higher protein-bound relaxivity than monobinder Gd-CHyd [3]	r1, +BSA-Ald [3]	r1, Bound to BSA-Ald [3]	increase of r1 in BSA^Ald compared to PBS value [3]	turn-on in relaxivity upon binding to allysine (BSA-Ald bound vs unbound) [3]	turn on in relaxivity ([3]; 1.4T)
NN1CCN(C(=O)CCC(C(=O)[O-])N2CCN(CC(=O)[O-])CCN(CC(=O)[O-])CCN(C(CCC(=O)N3CCN(N)CC3)C(=O)[O-])CC2)CC1.[Gd+3] (stereo not drawn) [Gd-9, cis-1,4-Gd-(CHyd)2]	6.6 mM⁻¹ s⁻¹	6.6 mM⁻¹ s⁻¹ and 6.5 mM⁻¹ s⁻¹	2.3 fold	50%	11.7 mM⁻¹ s⁻¹ and 11.2 mM⁻¹ s⁻¹	17.7 mM⁻¹ s⁻¹	77%	–	–
NN1CCN(C(=O)CCC(C(=O)[O-])N2CCN(CC(=O)[O-])CCN(C(CCC(=O)N3CCN(N)CC3)C(=O)[O-])CCN(CC(=O)[O-])CC2)CC1.[Gd+3] (stereo not drawn) [Gd-10, trans-1,7-Gd-(CHyd)2]	6.6 mM⁻¹ s⁻¹	6.6 mM⁻¹ s⁻¹	–	–	9.0 mM⁻¹ s⁻¹	18.7 mM⁻¹ s⁻¹	36%	–	–
NNC(CCC(=O)NCCCN1CCN(CC(=O)[O-])Cc2cccc(n2)CN(CC(=O)[O-])CC1)C(=O)O.[Mn+2] (stereo not drawn) [Mn-15]	3.1 mM⁻¹ s⁻¹	3.6 mM⁻¹ s⁻¹	–	–	5.9 mM⁻¹ s⁻¹	12.7 mM⁻¹ s⁻¹	90%	4 fold and ~3 fold	270%
NOC(CCC(=O)NCCCN1CCN(CC(=O)[O-])Cc2cccc(n2)CN(CC(=O)[O-])CC1)C(=O)O.[Mn+2] (stereo not drawn) [Mn-16]	3.1 mM⁻¹ s⁻¹	3.4 mM⁻¹ s⁻¹	–	–	7.7 mM⁻¹ s⁻¹	12.7 mM⁻¹ s⁻¹	–	4 fold	–
NNCC(=O)NCCCN1CCN(CC(=O)[O-])Cc2cccc(n2)CN(CC(=O)[O-])CC1.[Mn+2] [Mn-17]	3.0 mM⁻¹ s⁻¹	3.5 mM⁻¹ s⁻¹	–	–	5.6 mM⁻¹ s⁻¹	11.4 mM⁻¹ s⁻¹	90%	4 fold and ~3 fold	–
CN(C)C(CCC(=O)NCCCN1CCN(CC(=O)[O-])Cc2cccc(n2)CN(CC(=O)[O-])CC1)C(=O)O.[Mn+2] (stereo not drawn) [Mn-18]	3.1 mM⁻¹ s⁻¹	3.5 mM⁻¹ s⁻¹	–	–	3.6 mM⁻¹ s⁻¹	–	–	–	–

Source: patent US20240285808A1, “MOLECULAR PROBES FOR IN VIVO DETECTION OF ALDEHYDES” (The General Hospital Corporation, priority 2021, published 2024)
